Source: patent US20020155172A1, “Methods and compounds for decreasing cell toxicity or death” (priority 2000, published 2002)

Key:
[1] = test system: caspase-1, -8, or -11; test: Apoptosis induced by overexpression of caspases; type: cell-based
Protocol: FIG. 5H is a graph of the effects of Congo red on cell death induced by caspase over-expression(caspases-8, -1, or -11).
(§1) HeLa cells expressing Q79 expanded polyglutamine repeats were treated with 100 μM Congo red, or 100 μM ZVAD (a positive control) for one hour prior to the addition of the apoptosis-inducing agent, and cell death was determined 48 hours later. […] Finally we tested whether Congo red can inhibit apoptosis induced by overexpression of caspase-1, -8, or -11.

[2] = test system: HeLa cells transfected with the Q79-GFP plasmid; test: Cell death by receptor-mediated pathways (TNF-α or anti-FasR with cycloheximide); type: cell-based; conditions: Congo red 100 μM, 72 hours
Protocol: FIG. 4B is a graph showing the effect of Congo red (CR) on the induction of cell death by receptor-mediated pathways. HeLa cells transfected with a Q79-GFP plasmid were treated with TNF-a or anti-FasR and cycloheximide (CHX), in the presence or absence of CR (100 μM). The amount of cell death was measured 72 hours after transfection.
The effect of Congo red on the induction of cell death by receptor-mediated pathways was also evaluated. Once again, HeLa cells were transfected with the Q79-GFP plasmid, and six hours later were administered Tumor Necrosis Factor-alpha (TNF-α) or anti-FasR in the presence of cycloheximide (CHX). The samples were then incubated with or without Congo red (100 μM). The amount of cell death was measured 72 hours after exposure to the compounds (FIG. 4B).

[3] = test system: GST-Q81 beads; test: Chemical absorption assay, Q81; type: binding; conditions: 25 μM of each (FIG. 6B)
Protocol: FIG. 6B is a graph of the percent of binding of various compounds to amyloid-like Q81 aggregates measured using a chemical absorption assay. The anti-amyloid compounds minocycline, Chrysamine G, Rolitetracycline, iota carrageenan, dextran 500 (dextran), or Congo red (25 μM of each) were pre-absorbed with Q81 GST recombinant protein and the percentage absorbance of the compound remaining in the supernatant after absorption with GST-Q81 beads is plotted on the y-axis.
To determine if Congo red and its derivatives directly bind to expanded polyglutamine aggregates, we designed a chemical absorption assay. This assay measures the remaining Congo red in the supernatant after incubating the supernatant with GST-tagged polyglutamine beads, and removing the GST-polyglutamine beads by centrifugation. This assay was carried out as follows. Recombinant protein GST-Q19, GST-Q62, and GST-Q81 (containing 19, 62, and 81 polyglutamines, respectively) was purified from E. coli by glutathione beads. After several washes with PBS containing protease inhibitors, the beads were allowed to settle to the bottom of the tube at 24° C. for 10 minutes. The polyglutamine-bound beads were aliquoted and diluted with two volumes of 10 μg/ml of Congo red in PBS. The beads were mixed and centrifuged at 15,000 rpm for 2 minutes and the supernatant was removed and diluted 1:100. The percentage absorbance of the compound remaining in the supernatant after absorption with the GST-polyQ beads was then detected. In addition, Congo red- or PBS-only treated polyglutamine polypeptide bead pellets were washed three times with 100 volumes of PBS and then the protein was separated by 12% polyacrylamide gels and immunoblotted as mentioned above. Some blots were used for immunostaining with anti-polyglutamine antibody (EM48). Other blots were left unstained to visualize the red color of Congo red that entered the gel along with the polyglutamine protein.
Binding of the above-identified compounds to amyloid-like Q81 aggregates was also assessed by a chemical absorption assay. The compounds indicated in FIG. 19 (25 μM of each) were pre-absorbed with a Q81 GST recombinant protein and the percentage absorbance of the compound remaining in the supernatant after absorption with GST-Q81 beads was then detected.

[4] = test system: HeLa cells expressing Q79 expanded polyglutamine repeats; test: Cell death induced by TNF-α/CHX, Fas/CHX or H2O2; type: cell-based; conditions: 100 μM, one hour before the inducing agent; cell death 48 hours later
Protocol: FIG. 5F is a graph of the effects of Congo red, ZVAD, or vehicle (NT) on cell death when the cells are induced to die by receptor mediated pathways (TNF-α/cycloheximide (CHX), Fas/cycloheximide (CHX)), or necrosis (hydrogen peroxide).
as §1

[5] = test system: neuroblastoma (SHSY) cells transfected with Q79-GFP; test: Expanded polyglutamine aggregation and cell death in neuroblastoma (SHSY) cells; type: cell-based; conditions: Congo red 1.5 to 100 nM
Protocol: Cells, including neuroblastoma cells, HeLa cells, primary neuronal cells, and primary embryonic neuronal cells were transiently transfected with the plasmid […]-GFP, encoding 79 glutamines followed by the jellyfish green fluorescent protein (Sanchez et al., supra). Expression of […]-GFP was observed 48 or 72 hours after transfection by visual inspection of GFP-positive cells using an inverted fluorescence microscope. In a cell expressing […]-GFP polypeptides, polyglutamine aggregates are formed and the cell dies by apoptosis (Sanchez, supra). Cell viability was determined by morphological criteria characteristic of apoptosis, including cell blebbing, shrinking. Total cell lysates and tissue homogenates were obtained using Buffer A: 1% triton in PBS, containing 10 μg/ml DNAse and protease inhibitors; leupeptin 20 μg/ml, aprotinin 20 u/ml, and PMSF 100 mM. […] These effects were determined by visual inspection of GFP-positive cells under an inverted fluorescence microscope. […] Cells expressing […]-GFP were incubated in cell culture media containing Congo red and evaluated for the effect of Congo red on polyglutamine aggregation and cell death. […] The cells were then scored the presence of visible oligomers by fluorescence microscopy. Cells in which oligomers were not detected at this level of resolution were scored as cells lacking polyglutamine aggregates. […]

[6] = test system: HeLa cells transfected with Q79-GFP; test: Q79-GFP aggregates in HeLa cells by fluorescence microscopy; type: cell-based; conditions: 100 μM
Protocol: FIG. 5I is a set of scanned images of HeLa cells expressing Q79-GFP and subsequently treated with Congo red (100 μM), or ZVAD (100 μM), as detected by fluorescence microscopy.
Changes in energy metabolism have been detected in brains of pre-symptomatic HD animal models, and in pre-symptomatic patients. We detected a pronounced decline in ATP levels upon expanded polyglutamine expression in cells as early as 24 hours. […] Expression of Q79-GFP in HeLa cells transfected with Q79-GFP and subsequently treated with Congo red (100 μM), or ZVAD (100 μM), is shown in FIG. 51.

## Nc1c(/N=N/c2ccc(-c3ccc(/N=N/c4cc(S(=O)(=O)O)c5ccccc5c4N)cc3)cc2)cc(S(=O)(=O)O)c2ccccc12 [Congo red, diphenyldiazo-bis-alpha-napthylaminesulfonate]
[1]
  apoptosis induced by overexpression of caspase-1, -8, or -11: had no effect on caspase induced cell death
[2]
  induction of cell death by receptor-mediated pathways: does not alter the induction of cell death by receptor-mediated pathways
[3]
  binding to 81-repeat polyglutamine polypeptide: binds to expanded polyglutamines
[4]
  cell death induced by TNF-α/CHX, Fas/CHX, or H2O2: No effect
[5]
  cell death: significantly reduced cell death
  formation of polyglutamine aggregates: inhibited the formation of polyglutamine aggregates
[6]
  polyglutamine aggregates in cells: displayed fewer polyglutamine aggregates
